Where two headings read alike, the source gives them in different places.
Columns and labels:
[1] = tested on: platelet-derived growth factor receptor (PDGFR); design: method as in PMID 21691074; details: at a concentration of 10 μM; cited from earlier work
[2] = tested on: vascular endothelial growth factor receptor 2 (VEGFR2); design: method as in PMID 21691074; details: at a concentration of 10 μM; cited from earlier work
[3] = Pharmacokinetic study in beagle dogs; format: in vivo; details: 30 mg/kg; for AUC(0-t) / Cmax / MRT / Tmax / half-life / bioavailability: beagle, dog, plasma
Method: Six healthy beagle dogs (7.97 ± 0.73 kg) were randomly assigned into two groups. NCE was given to the dogs by intragastrical (i.g.) and intravenous (i.v.) administration at a dosage of 30 mg/kg. Blood was collected from the forelimb vein of the dogs at 0.25, 0.5, 0.75, 1, 2, 3, 4, 6, 8, 10, 12 and 24 h. Plasma samples were obtained by centrifuging blood at 3000 rpm for 10 min and were stored at −20 °C. Before analysis, acetonitrile was added into the plasma and the mixture was vortexed for 5 min to precipitate the protein. Then, the samples were centrifuged for 10 min at a speed of 1.3 × 10^4 rpm. The supernatant was collected and the solvent was removed by pressure blowing concentrator. Then, mobile phase was added to dissolve the residual. The concentrations of NCE in plasma were determined by HPLC.
The pharmacokinetic parameters were calculated using the pharmacokinetics-intelligent analysis module of DAS 2.1.1 software. Total areas under the concentration-time curve (AUC) after i.g. and i.v. administration were determined by extrapolation from time 0−t (AUC0−t), respectively. The oral bioavailability of NCE was estimated using the ratio of AUC values following i.g. and i.v. administration.

[4] = design: method as in ref 31 = [31]; 31. Yang Y. Fan C. Zhang J. He X. Yu Y. Fang D. He Y. Song X. Intestinal absorption characteristics and pharmacokinetics of the novel targeted small-molecular NCE in rats Chin. J. New Drugs 2013 21 25; details: rats; cited from earlier work
[5] = Solubility with sodium dodecyl sulfate (SDS) added; format: physicochemical; details: aqueous with cosolvent or surfactant or cyclodextrin
Method: Intrinsic dissolution ratio is defined as the dissolution rate of a pure drug substance under the condition of constant surface area, agitation or stirring speed, pH and ionic strength of the dissolution medium. As a rate characterization, IDR data has a good correlation with in vivo drug dissolution rate. […] Three different SDS concentrations were tested. The solubilities of NCE were 54.46 (0.4% SDS), 131.83 (1% SDS) and 255.91 (2% SDS) μg/mL. The volume of the release medium in this experiment was 900 mL, thus the introduction of 1% SDS into the medium was enough to achieve sink condition.
The concentration of NCE in perfusion buffer containing 0.4% SDS was high enough to conduct the following intestinal permeability study. Additionally, according to preliminary experiments, SDS with concentrations higher than 1% would be toxic to rats.

## CNC(=O)c1cc(Oc2ccc(NC(=O)c3cccc(C(F)(F)F)c3)cc2)ccn1.Cc1ccc(S(=O)(=O)O)cc1.O [NCE, 2-methylcarbamoyl-4-{4-[3-(trifluoromethyl)benzamido]phenoxy} pyridinium 4-methylbenzenesulfonate monohydrate]
[1]
  inhibition rate: 55%
[2]
  inhibition rate: 97%
[3]; beagle dogs
  i.v./i.g. AUC0−t ratio: 4.19
  i.v./i.g. Cmax ratio: about 11.10
[3]; iv, Beagle 1
  AUC(0-t): 56200 ng·h/mL
  Cmax: 26000 ng/mL
  MRT: 1.84 h
  Tmax: 0.23 h
  half-life: 6.39 h
[3]; iv, Beagle 2
  AUC(0-t): 34400 ng·h/mL
  Cmax: 23700 ng/mL
  MRT: 1.68 h
  Tmax: 0.3 h
  half-life: 3.56 h
[3]; iv, Beagle3
  AUC(0-t): 25100 ng·h/mL
  Cmax: 21600 ng/mL
  MRT: 1.35 h
  Tmax: 0.22 h
  half-life: 9.23 h
[3]; iv, mean ± SD, n = 3
  AUC(0-t): 38600 ± 16000 ng·h/mL
  Cmax: 23800 ± 2230 ng/mL
  MRT: 1.62 ± 0.25 h
  Tmax: 0.25 ± 0.04 h
  half-life: 6.39 ± 2.83 h
[3]; po, i.g., Beagle 4
  AUC(0-t): 6860 ng·h/mL
  Cmax: 3500 ng/mL
  MRT: 10.8 h
  Tmax: 2 h
  half-life: 12.3 h
[3]; po, i.g., Beagle 4, read-out: F, absolute bioavailability
  bioavailability: 12.2%
[3]; po, i.g., Beagle 5
  AUC(0-t): 13600 ng·h/mL
  Cmax: 860 ng/mL
  MRT: 10.6 h
  Tmax: 1.73 h
  half-life: 17.3 h
[3]; po, i.g., Beagle 5, read-out: F, absolute bioavailability
  bioavailability: 39.6%
[3]; po, i.g., Beagle 6
  AUC(0-t): 7160 ng·h/mL
  Cmax: 2060 ng/mL
  MRT: 11.2 h
  Tmax: 2 h
  half-life: 14.9 h
[3]; po, i.g., Beagle 6, read-out: F, absolute bioavailability
  bioavailability: 28.5%
[3]; po, i.g., mean ± SD, n = 3
  AUC(0-t): 9210 ± 3820 ng·h/mL
  Cmax: 2140 ± 1320 ng/mL
  MRT: 10.8 ± 0.31 h
  Tmax: 1.91 ± 0.15 h
  half-life: 14.8 ± 2.53 h
[3]; po, i.g., mean ± SD, n = 3, read-out: F, absolute bioavailability
  bioavailability: 26.8 ± 13.8%
[4]
  absolute oral bioavailability: 44.18%
[5]; phosphate buffer with 0.4% SDS
  solubility: 54.5 µg/mL
[5]; phosphate buffer with 1% SDS
  solubility: 132 µg/mL
[5]; phosphate buffer with 2% SDS
  solubility: 256 µg/mL
